From PubChem BioAssay AID248 (DTP/NCI, 2004)
Several values for one entry are separate records, joined by “and”; a condition that tells them apart may be missing. Equal values may be shown once. Toxic doses and inconclusive results are not listed.

Tested on: L1210 leukemia ip in BDF1 mice, survival T/C
Assay: NCI In Vivo Anticancer Drug Screen. Data for tumor model L1210 Leukemia (intraperitoneal) in B6D2F1 (BDF1) mice
Conditions: endpoint: mean survival time, higher = longer survival
Method in brief: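 Tumor cells were implanted, animals were treated, and survival was followed. The result divides the treated measurement by the vehicle-control measurement.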

[1] = dose: 25.0 mg/kg/injection, schedule: Q04DX003 (ip), vehicle: Klucel (hydroxypropylcellulose) (HPC)
[2] = dose: 50.0 mg/kg/injection, schedule: Q04DX003 (ip), vehicle: Klucel (hydroxypropylcellulose) (HPC)
[3] = dose: 100.0 mg/kg/injection, schedule: Q04DX003 (ip), vehicle: Klucel (hydroxypropylcellulose) (HPC)
[4] = dose: 100.0 mg/kg/injection, schedule: Q04DX003 (ip), vehicle: saline with Tween-80
[5] = dose: 200.0 mg/kg/injection, schedule: Q04DX003 (ip), vehicle: saline with Tween-80
[6] = dose: 400.0 mg/kg/injection, schedule: Q04DX003 (ip), vehicle: saline with Tween-80
[7] = dose: 100.0 mg/kg/injection, schedule: Q01DX009 (ip), vehicle: saline with Tween-80
[8] = dose: 200.0 mg/kg/injection, schedule: Q01DX009 (ip), vehicle: saline with Tween-80
[9] = dose: 400.0 mg/kg/injection, schedule: Q01DX009 (ip), vehicle: saline with Tween-80
[10] = dose: 100.0 mg/kg/injection, schedule: Q01DX009 (ip), vehicle: saline
[11] = dose: 100.0 mg/kg/injection, schedule: Q04DX003 (ip), vehicle: saline
[12] = dose: 200.0 mg/kg/injection, schedule: Q01DX009 (ip), vehicle: saline
[13] = dose: 200.0 mg/kg/injection, schedule: Q04DX003 (ip), vehicle: saline
[14] = dose: 400.0 mg/kg/injection, schedule: Q01DX009 (ip), vehicle: saline
[15] = dose: 400.0 mg/kg/injection, schedule: Q04DX003 (ip), vehicle: saline
[16] = dose: 75.0 mg/kg/injection, schedule: Q01DX001 (ip), vehicle: saline
[17] = dose: 150.0 mg/kg/injection, schedule: Q01DX001 (ip), vehicle: saline
[18] = dose: 300.0 mg/kg/injection, schedule: Q01DX001 (ip), vehicle: saline
[19] = dose: 50.0 mg/kg/injection, schedule: Q01DX009 (ip), vehicle: Klucel (hydroxypropylcellulose) (HPC)

For `CCCCCCCCCCCCOC(=O)/C=C\C(=O)NC(N)=O`, the T/C [1] was 102 % of control, the T/C [2] was 97 % of control and the T/C [3] was 105 % of control and 91 % of control. The T/C (dose: 150.0 mg/kg/injection, schedule: Q04DX003 (ip), vehicle: Klucel (hydroxypropylcellulose) (HPC)) was 96 % of control.

For `COC(=O)CSc1nc2ccccc2[nH]1`, the T/C (dose: 100.0 mg/kg/injection, schedule: Q04DX002 (ip), vehicle: Klucel (hydroxypropylcellulose) (HPC)) was 104 % of control, the T/C (dose: 200.0 mg/kg/injection, schedule: Q04DX002 (ip), vehicle: Klucel (hydroxypropylcellulose) (HPC)) was 100 % of control and the T/C (dose: 400.0 mg/kg/injection, schedule: Q04DX002 (ip), vehicle: Klucel (hydroxypropylcellulose) (HPC)) was 100 % of control.

In the case of `CC12CCC(=O)C=C1CCC1C2C(=O)CC2(C)C1CCC2(O)C(=O)COC(=O)c1cc([N+](=O)[O-])c(N2CC2)c([N+](=O)[O-])c1` (centres undefined), the T/C (dose: 50.0 mg/kg/injection, schedule: Q01DX001 (sc), vehicle: steriod suspending solution) is reported as 103 % of control, the T/C (dose: 60.0 mg/kg/injection, schedule: Q01DX015 (ip), vehicle: saline) is reported as 96 % of control and the T/C (dose: 90.0 mg/kg/injection, schedule: Q01DX015 (ip), vehicle: saline) is reported as 100 % of control. The T/C (dose: 100.0 mg/kg/injection, schedule: Q01DX001 (sc), vehicle: steriod suspending solution) was 95 % of control, the T/C (dose: 135.0 mg/kg/injection, schedule: Q01DX015 (ip), vehicle: saline) was 102 % of control and the T/C (dose: 200.0 mg/kg/injection, schedule: Q01DX001 (sc), vehicle: steriod suspending solution) was 101 % of control. The T/C (dose: 200.0 mg/kg/injection, schedule: Q01DX015 (ip), vehicle: saline) was 96 % of control and the T/C (dose: 400.0 mg/kg/injection, schedule: Q01DX001 (sc), vehicle: steriod suspending solution) was 103 % of control.

With `CCCCCC(C)C(=O)CCCC` (centres undefined) (tested in a mixture with another compound) the T/C [4] was 106 % of control, the T/C [5] was 97 % of control and the T/C [6] was 86 % of control.

`COC1OC(OC)[CH]([Hg][Cl])C1OC` (centres undefined) was tested, and the T/C (dose: 3.13 mg/kg/injection, schedule: Q01DX009 (ip), vehicle: saline with Tween-80) was 94 % of control, the T/C (dose: 6.25 mg/kg/injection, schedule: Q01DX009 (ip), vehicle: saline with Tween-80) was 92 % of control and the T/C (dose: 6.25 mg/kg/injection, schedule: Q04DX003 (ip), vehicle: saline) was 100 % of control. For the same compound, the T/C (dose: 12.5 mg/kg/injection, schedule: Q01DX009 (ip), vehicle: saline with Tween-80) was 91 % of control and the T/C (dose: 12.5 mg/kg/injection, schedule: Q04DX003 (ip), vehicle: saline) was 100 % of control.

With `CCCCCCCCCCCCOC(=N)N1CCOCC1` the T/C (dose: 11.1 mg/kg/injection, schedule: Q01DX Z (ip), vehicle: saline) was 102 % of control, the T/C (dose: 16.6 mg/kg/injection, schedule: Q01DX Z (ip), vehicle: saline) was 102 % of control and the T/C (dose: 25.0 mg/kg/injection, schedule: Q01DX Z (ip), vehicle: saline) was 98 % of control.

In the case of `ClCc1csc(-c2ccccc2)n1`, the T/C [7] is reported as 115 % of control, the T/C [8] is reported as 94 % of control and the T/C [9] is reported as 92 % of control.

With `Nc1ccccc1CCCC(=O)O` the T/C [10] was 95 % of control, the T/C [11] was 104 % of control and the T/C [12] was 90 % of control. For the same compound, the T/C [13] was 98 % of control, the T/C [14] was 105 % of control and the T/C [15] was 93 % of control.

With `C1CC2CCCC(C1)S2` the T/C [16] was 102 % of control, the T/C [17] was 100 % of control and the T/C [18] was 96 % of control.

`CCC1(C)NC(=O)NC1=O` (centres undefined) was tested, and the T/C (dose: 50.0 mg/kg/injection, schedule: Q01DX009 (ip), vehicle: saline) was 100 % of control, the T/C (dose: 100.0 mg/kg/injection, schedule: Q01DX001 (ip), vehicle: saline) was 112 % of control and the T/C [10] was 98 % of control. For the same compound, the T/C [11] was 106 % of control, the T/C (dose: 200.0 mg/kg/injection, schedule: Q01DX001 (ip), vehicle: saline) was 102 % of control and the T/C [12] was 111 % of control. For the same compound, the T/C [13] was 101 % of control, the T/C (dose: 400.0 mg/kg/injection, schedule: Q01DX001 (ip), vehicle: saline) was 100 % of control and the T/C [14] was 109 % of control. For the same compound, the T/C [15] was 101 % of control.

For `CC(=O)OC1CC2C=CC1C2` (centres undefined), the T/C [7] was 93 % of control, the T/C [8] was 91 % of control and the T/C [9] was 86 % of control.

With `Cc1c(-c2ccccc2)sc(/N=C/c2ccc(Cl)c(Cl)c2)c1C#N` the T/C [7] was 103 % of control and 104 % of control, the T/C (dose: 100.0 mg/kg/injection, schedule: Q04DX002 (ip), vehicle: saline with Tween-80) was 96 % of control and 101 % of control and the T/C [8] was 103 % of control and 108 % of control. The T/C (dose: 200.0 mg/kg/injection, schedule: Q04DX002 (ip), vehicle: saline with Tween-80) was 97 % of control and 104 % of control, the T/C [9] was 93 % of control and 97 % of control and the T/C (dose: 400.0 mg/kg/injection, schedule: Q04DX002 (ip), vehicle: saline with Tween-80) was 104 % of control and 115 % of control.

With `CCNc1ccccc1-c1nc2ccccc2[nH]1` the T/C [19] was 93 % of control, the T/C (dose: 100.0 mg/kg/injection, schedule: Q01DX009 (ip), vehicle: Klucel (hydroxypropylcellulose) (HPC)) was 100 % of control and the T/C (dose: 200.0 mg/kg/injection, schedule: Q01DX009 (ip), vehicle: Klucel (hydroxypropylcellulose) (HPC)) was 102 % of control.

With `CCOC(=O)c1ccc(N2C(=O)c3cccc4cccc(c34)C2=O)c([N+](=O)[O-])c1` the T/C [4] was 97 % of control, the T/C [5] was 93 % of control and the T/C [6] was 95 % of control.

`Cc1cc(C)c(S(=O)(=O)c2c(C)cc(C)cc2C)c(C)c1` was tested, and the T/C [1] was 100 % of control, the T/C [2] was 93 % of control and the T/C [3] was 88 % of control.

For `O=C(CNC(=O)c1cccc(C(=O)NCC(=O)Nc2ccc(C3=NCCN3)cc2)c1)Nc1ccc(C2=NCCN2)cc1`, the T/C (dose: 4.0 mg/kg/injection, schedule: Q01DX Z (ip), vehicle: water) was 107 % of control, the T/C (dose: 6.0 mg/kg/injection, schedule: Q01DX Z (ip), vehicle: water) was 104 % of control and the T/C (dose: 9.0 mg/kg/injection, schedule: Q01DX Z (ip), vehicle: water) was 113 % of control. For the same compound, the T/C (dose: 12.0 mg/kg/injection, schedule: Q01DX Z (ip), vehicle: water) was 153 % of control.

With `CCCCCCC(C(=O)OCC)P(=O)(OCC)OCC` (centres undefined) the T/C [16] was 101 % of control, the T/C [17] was 94 % of control and the T/C [18] was 100 % of control.

`CCCCCCc1cc(N=Nc2ccc(S(=O)(=O)Nc3nnc(C)s3)cc2)c(O)cc1O` was tested, and the T/C (dose: 100.0 mg/kg/injection, schedule: Q01DX001 (ip), vehicle: carboxymethylcellulose (CMC)) was 98 % of control and the T/C (dose: 200.0 mg/kg/injection, schedule: Q01DX001 (ip), vehicle: carboxymethylcellulose (CMC)) was 95 % of control.

With `Cc1cc(C)n(/N=C/c2ccc(N(C)C)cc2)c(=O)c1C#N` the T/C [11] was 95 % of control, the T/C [13] was 95 % of control and the T/C [15] was 95 % of control.

In the case of `O=C(O)COc1ccc(Cl)cc1Cl`, the T/C [10] is reported as 100 % of control and the T/C [12] is reported as 100 % of control.

With `NCC1COc2ccccc2O1` (centres undefined) the T/C (dose: 75.0 mg/kg/injection, schedule: Q01DX001 (ip), vehicle: carboxymethylcellulose (CMC)) was 98 % of control, the T/C (dose: 150.0 mg/kg/injection, schedule: Q01DX001 (ip), vehicle: carboxymethylcellulose (CMC)) was 96 % of control and the T/C (dose: 300.0 mg/kg/injection, schedule: Q01DX001 (ip), vehicle: carboxymethylcellulose (CMC)) was 96 % of control.

With `CCN(CC)CCN(CC)C(=S)Nc1ccccc1` the T/C (dose: 12.5 mg/kg/injection, schedule: Q01DX009 (ip), vehicle: Klucel (hydroxypropylcellulose) (HPC)) was 117 % of control, the T/C (dose: 25.0 mg/kg/injection, schedule: Q01DX009 (ip), vehicle: Klucel (hydroxypropylcellulose) (HPC)) was 109 % of control and the T/C [19] was 102 % of control.

With `CCCCCOc1cc([N+](=O)[O-])c(OCCCCC)cc1N1CCN(C(C)=O)CC1` the T/C (dose: 100.0 mg/kg/injection, schedule: Q04DX003 (sc), vehicle: olive oil, sesame oil, peanut oil) was 100 % of control, the T/C (dose: 200.0 mg/kg/injection, schedule: Q04DX003 (sc), vehicle: olive oil, sesame oil, peanut oil) was 96 % of control and the T/C (dose: 400.0 mg/kg/injection, schedule: Q04DX003 (sc), vehicle: olive oil, sesame oil, peanut oil) was 105 % of control.
